Measurements from patent publication US9504747B2, “Lipids and lipid compositions for the delivery of active agents” (Novartis AG, priority 2013, dated 2016).

Columns and labels:
[1] = pKa measurement of the cationic lipid (TNS fluorescence vs pH); type: physicochemical; settings: probe TNS (fluorescent probe), Table 4; pKa of the cationic lipid of formula (I)
Protocol: Unless indicated otherwise, all pKa's referred to herein were measured at standard temperature and pressure. Also, unless otherwise indicated, all references to pKa are references to pKa measured using the following technique. 2 mM solution of lipid in ethanol was prepared by weighing the lipid and then dissolving it in ethanol. 0.3 mM solution of fluorescent probe TNS in ethanol:methanol 9:1 was prepared by first making 3 mM solution of TNS in methanol and then diluting to 0.3 mM with ethanol. An aqueous buffer containing 200 mM sodium phosphate dibasic and 100 mM citric acid was prepared. […] Using the Hamilton Microlab Star high throughput liquid handler and Hamilton run control software Software, 7.5 uL of probe/lipid mix were added to 242.5 uL of buffer in a 1 mL 96 well plate (model NUNC 260252, […] Nunc International). This was done with all twelve buffers. After mixing in 1 mL 96 well plate, 100 uL of each probe/lipid/buffer mixture was transferred to a 250 uL black with clear bottom 96 well plate (model COSTAR 3904, Corning). The fluorescence measurements are carried out on the SpectraMax M5 spectrophotometer using software SoftMax pro 5.2 and following parameters: After the measurement, the background fluorescence value of an empty well on the 96 well plate was subtracted from each probe/lipid/buffer mixture. The fluorescence intensity values were then normalized to the value at lowest pH. The normalized fluorescence intensity vs. pH chart was then plotted in the Microsoft Excel software. The twelve points were connected with a smooth line. The point on the line at which the normalized fluorescence intensity was equal to 0.5 was found. […] The pKa determined using this method is precise to about 0.1 pKa units.

[2] = test system: respiratory syncytial virus F protein; test: Immunization studies: anti-RSV-F titers after liposome-delivered vA317 self-replicating RNA; type: in vivo; settings: BALB/c mice, liposomes with 0.1 μg vA317 replicon (naked control 1 μg); for anti-RSV-F titer 2wp1 pool 1 / anti-RSV-F titer 2wp1 pool 2: 2 weeks after first dose; for anti-RSV-F titer 2wp2 pool 1 / anti-RSV-F titer 2wp2 pool 2: 2 weeks after second dose; for anti-RSV-F titer 4wp2 pool 1 / anti-RSV-F titer 4wp2 pool 2: 4 weeks after second dose
Protocol: BALB/c were immunized with liposomes comprising DSPC, cholesterol, and various lipids of the invention (or, for comparison, the cationic lipid 1,2-dilinoleyloxy-N,N-dimethyl-3-aminopropane or ‘DLinDMA’). The liposomes encapsulated 0.1 μg of “vA317” self-replicating RNA replicon which encodes respiratory syncytial virus F protein (see WO2012/031043). […] Doses were given either on days 0 & 21 or days 0 & 42. Immune responses were assessed 2 weeks after each dose (2wp1, 2wp2), and in some cases also at 4 weeks after the second dose (4wp2). Four series of experiments were performed, each with its own naked control.

[3] = Polydispersity index (PDI) of the lipid nanoparticle (dynamic light scattering); type: physicochemical; settings: Table 4; FVII siRNA LNP; Chol/DSPC/stealth lipid S010, 45/44/9/2
Source text: The lipid nanoparticles (LNPs) were formed by mixing equal volumes of lipids dissolved in alcohol with siRNA dissolved in a citrate buffer by an impinging jet process. […] The siRNA to total lipid ratio is approximately 0.05 (wt/wt). Where a LNP formulation contains four lipid components, the molar ratios correspond to the type of lipid as it appears in the first four columns of the table, in the order that they appear. The ratio of the lipids ranges from 20 to 70 mole percent for the cationic lipid with a target of 40-60, the mole percent of helper lipid ranges from 20 to 70 with a target of 30 to 50, the mole percent of neutral lipid ranges from 0-30, the mole percent of PEG lipid has a range from 1 to 6 with a target of 2 to 5. The concentration of siRNA solution ranges from 0.7 to 1.0 mg/mL with a target of 0.8 to 0.9 mg/mL in a sodium citrate: sodium chloride buffer pH 4-6, with a target of 4.5-5.5. The LNPs are formed by mixing equal volumes of lipid solution in ethanol with siRNA dissolved in a citrate buffer by an impinging jet process through a mixing device with ID ranging from 0.25 to 2.0 mm at a flow rate from 10 to 640 mL/min. The mixed LNP solution is held at room temperature for 0-24 hrs prior to a dilution step. […] The final product is sterile filtered and stored at 4° C. Unless indicated otherwise, all PDIs referred to herein are the PDI of the fully formed nanoparticle, as measured by dynamic light scattering on a Malvern Zetasizer. The nanoparticle sample was diluted in phosphate buffered saline (PBS) so that the count rate was approximately 200-400 kcts. The data is presented in Tables 4 and 5 as a weighted average of the intensity measure.

Row | pKa [1] | Compound | anti-RSV-F titer 2wp1 pool 1 ([2]; Course A = days 0 & 21) | anti-RSV-F titer 2wp1 pool 2 ([2]; Course A = days 0 & 21) | anti-RSV-F titer 2wp2 pool 1 ([2]; Course A = days 0 & 21) | anti-RSV-F titer 2wp2 pool 2 ([2]; Course A = days 0 & 21) | further results
1 | 5.81 | CCCCCCCCCCCCOC(=O)CCCCCOc1cc(CN(C)C)cc(OCCCCCC(=O)OCCCCCCCCCCCC)c1 [Example 90] |  |  |  |  | 
2 | 5.72 | CCCCCCCC(=O)OCCCCCC(=O)OCc1cc(COC(=O)CCCCCOC(=O)CCCCCCC)cc(CN(C)C)c1 [Example 85] |  |  |  |  | 
3 | 6.48 | CCCCCCCCCOC(=O)CCCCCCC(=O)OCc1cc(COC(=O)CCCCCCC(=O)OCCCCCCCCC)cc(CN(C)C)c1 [Example 79] |  |  |  |  | 
4 | 5.94 | CCCCCCCCOC(=O)CCCCCCCC(=O)OCCCOc1cc(CN(C)C)cc(OCCCOC(=O)CCCCCCCC(=O)OCCCCCCCC)c1 [Example 98] |  |  |  |  | PDI [3]: 0.096
5 | 6.32 | CCCCCCCCC(CCCCCCCC)CC(=O)OCc1cc(COC(=O)CCCCCCCOC(=O)CCCCCCC)cc(CN(C)C)c1 [Example 101] |  |  |  |  | 

More lines, now with the values behind:

Row | Compound | pKa [1] | anti-RSV-F titer 2wp1 pool 1 ([2]; Course A = days 0 & 21) | anti-RSV-F titer 2wp1 pool 2 ([2]; Course A = days 0 & 21) | anti-RSV-F titer 2wp2 pool 1 ([2]; Course A = days 0 & 21) | anti-RSV-F titer 2wp2 pool 2 ([2]; Course A = days 0 & 21) | further results
6 | CCCCC/C=C\C/C=C\CCCCCCCC(=O)OCc1cc(COC(=O)CCCCCCC/C=C\C/C=C\CCCCC)cc(COC(=O)OCCN(C)C)c1 [Example 70] |  | 1416 | 3110 | 31550 | 20124 | anti-RSV-F titer 4wp2 pool 1 ([2]; Course A = days 0 & 21): 18779; anti-RSV-F titer 4wp2 pool 2 ([2]; Course A = days 0 & 21): 18358
7 | CCCCC/C=C\C/C=C\CCCCCCCCOc1cc(COC(=O)CCN(C)C)cc(OCCCCCCCC/C=C\C/C=C\CCCCC)n1 [Example 31] | 6.01 |  |  |  |  | PDI [3]: 0.049
8 | CCCCCCCC/C=C\CCCCCCCCOc1cc(OCCCCCCCC/C=C\CCCCCCCC)cc(C2OCC(CN3CCCC3)O2)c1 (stereo not drawn) [Example 9] |  | 1832 | 1352 | 29707 | 18788 | 
9 | CCCCC/C=C\C/C=C\CCCCCCCCOc1cc(COC(=O)OCCCN(C)C)cc(OCCCCCCCC/C=C\C/C=C\CCCCC)c1 [Example 68] |  | 1031 | 494 | 11315 | 7800 | anti-RSV-F titer 4wp2 pool 1 ([2]; Course A = days 0 & 21): 12963; anti-RSV-F titer 4wp2 pool 2 ([2]; Course A = days 0 & 21): 17734
10 | CCCCC/C=C\C/C=C\CCCCCCCCOc1cc(COC(=O)CCCN(C)C)cc(OCCCCCCCC/C=C\C/C=C\CCCCC)c1 [Example 13] |  | 495 | 620 | 7157 | 12316 | 
11 | CCCCCCCCC(CCCCCCCC)CC(=O)OCCCOc1cc(CN(C)C)cc(OCCCOC(=O)CC(CCCCCCCC)CCCCCCCC)c1 [Example 56] | 5.93 |  |  |  |  | 
12 | CCCCCCCC/C=C\CCCCCCCCOc1cc(OCCCCCCCC/C=C\CCCCCCCC)cc(C2OCC(COC(=O)CN(C)C)O2)c1 (stereo not drawn) [Example 12] |  |  |  |  |  | anti-RSV-F titer 2wp1 pool 1 ([2]; Course B = days 0 & 42): 88; anti-RSV-F titer 2wp1 pool 2 ([2]; Course B = days 0 & 42): 128; anti-RSV-F titer 2wp2 pool 1 ([2]; Course B = days 0 & 42): 4550; anti-RSV-F titer 2wp2 pool 2 ([2]; Course B = days 0 & 42): 4828; anti-RSV-F titer 4wp2 pool 1 ([2]; Course B = days 0 & 42): 4787; anti-RSV-F titer 4wp2 pool 2 ([2]; Course B = days 0 & 42): 3972
13 | CCCCC/C=C\C/C=C\CCCCCCCCOc1cc(C(=O)OCCCN(C)C)cc(OCCCCCCCC/C=C\C/C=C\CCCCC)n1 [Example 25] |  | 1217 | 1883 | 1611 | 1156 | anti-RSV-F titer 4wp2 pool 1 ([2]; Course A = days 0 & 21): 2850; anti-RSV-F titer 4wp2 pool 2 ([2]; Course A = days 0 & 21): 1767
14 | CCCCC/C=C\C/C=C\CCCCCCCC(=O)OCCCCCCOc1cc(CN(C)C)cc(OCCCCCCOC(=O)CCCCCCC/C=C\C/C=C\CCCCC)c1 [Example 45] | 5.57 |  |  |  |  | 
